Measurements published in PMC3272775 (Journal of Medicinal Chemistry, 2012).
“Also recorded” adds a separate entry of the source. Counter-ions that a name gives are not always drawn.

Legend:
[1] = test system: immobility in the mouse forced swim test; experiment: Mouse forced swim test; type: in vivo
[2] = target: human α4β2-nAChR (Homo sapiens, UniProt P17787+P43681); experiment: 86Rb+ efflux assay in SH-EP1-hα4β2 cells; type: cell-based; details: efficacies similar to that of carbamylcholine
[3] = target: α3β4*-nAChR (Homo sapiens, UniProt P30926+P32297); experiment: 86Rb+ efflux assay in SH-SY5Y cells; type: cell-based; details: efficacies similar to that of carbamylcholine
α3β4*-nAChR, sequence (P32297 32-505): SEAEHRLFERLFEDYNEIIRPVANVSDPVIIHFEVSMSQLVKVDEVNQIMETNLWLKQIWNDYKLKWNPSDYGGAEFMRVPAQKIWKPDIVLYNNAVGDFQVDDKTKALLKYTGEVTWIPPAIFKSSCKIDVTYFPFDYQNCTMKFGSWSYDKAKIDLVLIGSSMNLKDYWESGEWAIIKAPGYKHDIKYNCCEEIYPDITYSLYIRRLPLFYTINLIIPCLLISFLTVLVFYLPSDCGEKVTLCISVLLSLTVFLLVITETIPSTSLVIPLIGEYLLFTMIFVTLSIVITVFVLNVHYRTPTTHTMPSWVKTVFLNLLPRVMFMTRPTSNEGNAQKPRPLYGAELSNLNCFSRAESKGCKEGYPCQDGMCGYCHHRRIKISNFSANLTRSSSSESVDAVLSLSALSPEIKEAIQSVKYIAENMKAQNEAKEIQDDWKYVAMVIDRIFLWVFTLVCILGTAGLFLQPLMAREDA
α3β4*-nAChR, sequence (P30926 22-498): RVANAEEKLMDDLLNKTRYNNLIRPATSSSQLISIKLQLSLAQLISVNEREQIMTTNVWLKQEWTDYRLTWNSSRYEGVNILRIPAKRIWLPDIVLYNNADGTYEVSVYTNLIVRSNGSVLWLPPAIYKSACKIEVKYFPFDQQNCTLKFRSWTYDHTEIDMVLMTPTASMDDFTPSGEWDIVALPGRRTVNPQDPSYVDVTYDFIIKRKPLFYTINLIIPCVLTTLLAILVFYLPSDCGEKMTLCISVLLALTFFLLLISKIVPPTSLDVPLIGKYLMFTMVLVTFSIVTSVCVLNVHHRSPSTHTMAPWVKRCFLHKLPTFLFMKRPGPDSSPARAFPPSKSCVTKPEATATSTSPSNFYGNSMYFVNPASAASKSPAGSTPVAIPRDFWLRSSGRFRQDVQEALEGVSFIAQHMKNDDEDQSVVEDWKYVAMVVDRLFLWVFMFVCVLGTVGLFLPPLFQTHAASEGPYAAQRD

[4] = target: α1β1γδ-nAChR (Homo sapiens, UniProt P02708+P07510+Q07001); experiment: 86Rb+ efflux assay in TE671/RD cells; type: cell-based
α1β1γδ-nAChR, sequence (P02708 21-457): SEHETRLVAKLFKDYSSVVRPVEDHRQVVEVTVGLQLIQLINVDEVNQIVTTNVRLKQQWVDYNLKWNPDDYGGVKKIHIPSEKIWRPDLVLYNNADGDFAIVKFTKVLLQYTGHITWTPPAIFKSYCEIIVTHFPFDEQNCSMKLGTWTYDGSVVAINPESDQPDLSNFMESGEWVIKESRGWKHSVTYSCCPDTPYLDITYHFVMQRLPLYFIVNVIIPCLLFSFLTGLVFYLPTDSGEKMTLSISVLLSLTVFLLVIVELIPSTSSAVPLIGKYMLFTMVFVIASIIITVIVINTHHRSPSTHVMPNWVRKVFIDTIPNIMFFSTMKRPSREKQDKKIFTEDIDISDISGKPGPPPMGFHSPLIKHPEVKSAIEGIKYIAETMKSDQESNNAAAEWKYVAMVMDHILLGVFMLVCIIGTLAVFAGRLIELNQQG
α1β1γδ-nAChR, sequence (P11230 24-501 partner): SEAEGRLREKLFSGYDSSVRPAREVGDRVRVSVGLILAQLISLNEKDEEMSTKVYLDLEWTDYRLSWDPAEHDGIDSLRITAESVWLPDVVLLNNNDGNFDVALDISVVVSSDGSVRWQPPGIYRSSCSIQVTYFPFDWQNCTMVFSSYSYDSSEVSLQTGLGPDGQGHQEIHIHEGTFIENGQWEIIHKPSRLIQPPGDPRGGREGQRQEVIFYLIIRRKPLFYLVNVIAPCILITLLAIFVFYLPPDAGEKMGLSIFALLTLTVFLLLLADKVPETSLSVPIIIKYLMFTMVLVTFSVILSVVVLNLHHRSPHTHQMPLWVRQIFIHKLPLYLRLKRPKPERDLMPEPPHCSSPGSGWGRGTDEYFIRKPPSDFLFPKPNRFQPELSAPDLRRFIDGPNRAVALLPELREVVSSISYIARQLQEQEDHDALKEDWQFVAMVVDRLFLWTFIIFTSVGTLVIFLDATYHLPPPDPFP
α1β1γδ-nAChR, sequence (P07510 23-517): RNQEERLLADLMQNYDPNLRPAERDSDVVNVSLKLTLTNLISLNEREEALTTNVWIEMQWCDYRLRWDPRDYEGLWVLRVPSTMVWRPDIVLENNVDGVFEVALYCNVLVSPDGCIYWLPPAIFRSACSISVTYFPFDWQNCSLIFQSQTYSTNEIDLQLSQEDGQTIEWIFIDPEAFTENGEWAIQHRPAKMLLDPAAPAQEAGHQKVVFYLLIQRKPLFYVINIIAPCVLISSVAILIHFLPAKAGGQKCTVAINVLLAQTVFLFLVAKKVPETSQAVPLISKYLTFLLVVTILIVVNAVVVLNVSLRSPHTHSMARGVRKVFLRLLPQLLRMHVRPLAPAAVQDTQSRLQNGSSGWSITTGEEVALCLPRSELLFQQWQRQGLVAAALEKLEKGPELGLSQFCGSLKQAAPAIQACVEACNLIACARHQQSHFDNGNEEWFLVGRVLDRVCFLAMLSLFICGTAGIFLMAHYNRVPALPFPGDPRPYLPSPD
α1β1γδ-nAChR, sequence (Q07001 22-517): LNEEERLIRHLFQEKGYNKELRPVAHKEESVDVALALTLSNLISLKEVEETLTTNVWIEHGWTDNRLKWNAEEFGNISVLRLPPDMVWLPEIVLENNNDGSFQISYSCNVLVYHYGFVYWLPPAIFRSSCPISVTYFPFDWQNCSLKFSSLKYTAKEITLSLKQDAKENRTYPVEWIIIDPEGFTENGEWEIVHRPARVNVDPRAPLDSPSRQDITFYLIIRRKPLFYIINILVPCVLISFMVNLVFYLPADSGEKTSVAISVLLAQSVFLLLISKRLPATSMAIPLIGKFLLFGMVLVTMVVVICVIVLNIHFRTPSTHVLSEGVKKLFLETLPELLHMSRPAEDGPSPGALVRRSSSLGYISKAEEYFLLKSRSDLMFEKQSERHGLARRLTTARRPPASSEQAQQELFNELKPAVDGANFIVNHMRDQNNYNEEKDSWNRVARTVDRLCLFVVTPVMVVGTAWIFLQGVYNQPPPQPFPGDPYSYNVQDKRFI

[5] = test system: about 45 other CNS neurotransmitter receptors and transporters; experiment: Broad-range screening; type: binding; details: 10 μM; about 45 receptors and transporters
[6] = target: T1, CYP1A2 (Homo sapiens, UniProt P05177); experiment: Multiple CYP inhibition assay in human liver microsomes, CYP1A2; type: in vitro ADME
T1 sequence (P05177 1-516): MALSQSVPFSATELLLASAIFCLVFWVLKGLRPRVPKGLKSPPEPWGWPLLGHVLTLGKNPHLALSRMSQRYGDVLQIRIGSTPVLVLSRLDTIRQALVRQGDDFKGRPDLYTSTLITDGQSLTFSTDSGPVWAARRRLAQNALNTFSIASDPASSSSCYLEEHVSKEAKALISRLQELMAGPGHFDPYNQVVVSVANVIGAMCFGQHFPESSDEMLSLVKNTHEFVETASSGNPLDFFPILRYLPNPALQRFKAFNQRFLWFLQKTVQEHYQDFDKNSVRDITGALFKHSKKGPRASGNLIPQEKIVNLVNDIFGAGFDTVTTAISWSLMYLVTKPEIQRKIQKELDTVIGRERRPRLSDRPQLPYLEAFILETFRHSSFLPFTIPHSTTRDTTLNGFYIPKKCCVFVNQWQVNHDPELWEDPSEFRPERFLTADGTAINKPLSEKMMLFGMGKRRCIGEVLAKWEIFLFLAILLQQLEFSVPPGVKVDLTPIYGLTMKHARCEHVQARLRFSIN

[7] = target: T2, CYP2B6 (Homo sapiens, UniProt P20813); experiment: Multiple CYP inhibition assay in human liver microsomes, CYP2B6; type: in vitro ADME
T2 sequence (P20813 1-491): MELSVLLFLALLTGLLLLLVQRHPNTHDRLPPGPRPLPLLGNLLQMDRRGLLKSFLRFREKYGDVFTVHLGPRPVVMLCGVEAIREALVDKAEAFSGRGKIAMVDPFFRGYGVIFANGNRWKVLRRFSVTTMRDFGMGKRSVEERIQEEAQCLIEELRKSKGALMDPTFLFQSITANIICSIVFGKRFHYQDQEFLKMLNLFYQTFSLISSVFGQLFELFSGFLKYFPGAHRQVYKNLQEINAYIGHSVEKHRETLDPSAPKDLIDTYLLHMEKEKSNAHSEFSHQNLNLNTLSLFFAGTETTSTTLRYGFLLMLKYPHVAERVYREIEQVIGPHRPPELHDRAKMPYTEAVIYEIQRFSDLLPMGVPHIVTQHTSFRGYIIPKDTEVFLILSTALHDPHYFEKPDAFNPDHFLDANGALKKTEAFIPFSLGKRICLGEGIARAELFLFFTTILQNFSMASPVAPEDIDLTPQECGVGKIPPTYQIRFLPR

[8] = target: CYP2C9 (Homo sapiens, UniProt P11712); experiment: Multiple CYP inhibition assay in human liver microsomes, CYP2C9; type: in vitro ADME
CYP2C9, sequence (P11712 whole entry): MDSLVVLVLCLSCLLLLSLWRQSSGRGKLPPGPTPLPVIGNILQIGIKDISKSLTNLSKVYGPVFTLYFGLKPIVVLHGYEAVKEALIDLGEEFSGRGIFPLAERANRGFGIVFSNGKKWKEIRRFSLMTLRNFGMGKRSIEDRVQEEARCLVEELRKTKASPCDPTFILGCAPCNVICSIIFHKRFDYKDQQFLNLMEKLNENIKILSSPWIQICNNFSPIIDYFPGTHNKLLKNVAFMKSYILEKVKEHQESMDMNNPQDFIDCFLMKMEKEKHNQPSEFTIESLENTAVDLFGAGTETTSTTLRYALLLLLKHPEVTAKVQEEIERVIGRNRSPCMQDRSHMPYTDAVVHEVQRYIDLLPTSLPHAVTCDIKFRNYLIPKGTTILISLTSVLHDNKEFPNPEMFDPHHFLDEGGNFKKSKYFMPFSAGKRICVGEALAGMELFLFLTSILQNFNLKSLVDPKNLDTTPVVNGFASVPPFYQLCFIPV

[9] = target: CYP2C19 (Homo sapiens, UniProt P33261); experiment: Multiple CYP inhibition assay in human liver microsomes, CYP2C19; type: in vitro ADME
CYP2C19, sequence (P33261 whole entry): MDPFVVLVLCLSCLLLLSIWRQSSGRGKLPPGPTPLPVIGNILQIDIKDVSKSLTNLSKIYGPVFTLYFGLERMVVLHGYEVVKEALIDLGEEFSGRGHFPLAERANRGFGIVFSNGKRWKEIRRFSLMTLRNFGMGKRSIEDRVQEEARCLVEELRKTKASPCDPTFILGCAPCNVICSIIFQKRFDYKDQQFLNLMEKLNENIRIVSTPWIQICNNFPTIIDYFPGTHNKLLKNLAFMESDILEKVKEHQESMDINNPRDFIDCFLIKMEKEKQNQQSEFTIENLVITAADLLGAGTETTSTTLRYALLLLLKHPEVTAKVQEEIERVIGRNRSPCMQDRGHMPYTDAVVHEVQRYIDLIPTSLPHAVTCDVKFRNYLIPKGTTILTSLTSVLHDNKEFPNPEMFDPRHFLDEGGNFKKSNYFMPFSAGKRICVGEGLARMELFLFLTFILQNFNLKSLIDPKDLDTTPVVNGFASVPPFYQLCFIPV

[10] = target: CYP2D6 (Homo sapiens, UniProt P10635); experiment: Multiple CYP inhibition assay in human liver microsomes, CYP2D6; type: in vitro ADME
CYP2D6, sequence (P10635 whole entry): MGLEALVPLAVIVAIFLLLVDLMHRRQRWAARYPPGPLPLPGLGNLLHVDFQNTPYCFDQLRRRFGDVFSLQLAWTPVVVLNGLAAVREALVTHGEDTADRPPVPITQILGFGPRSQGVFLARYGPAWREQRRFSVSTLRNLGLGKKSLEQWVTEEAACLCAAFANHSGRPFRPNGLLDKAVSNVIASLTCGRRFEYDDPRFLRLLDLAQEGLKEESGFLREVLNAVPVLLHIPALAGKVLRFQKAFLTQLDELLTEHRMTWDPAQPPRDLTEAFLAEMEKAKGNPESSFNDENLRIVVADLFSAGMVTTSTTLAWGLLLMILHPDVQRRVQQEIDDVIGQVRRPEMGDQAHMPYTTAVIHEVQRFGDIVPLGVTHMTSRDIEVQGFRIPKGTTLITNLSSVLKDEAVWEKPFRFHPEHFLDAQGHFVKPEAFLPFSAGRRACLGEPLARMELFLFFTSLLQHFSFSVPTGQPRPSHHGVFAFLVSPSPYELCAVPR

[11] = target: CYP3A4 (Homo sapiens, UniProt P08684); experiment: Multiple CYP inhibition assay in human liver microsomes, CYP3A4; type: in vitro ADME
CYP3A4, sequence (P08684 whole entry): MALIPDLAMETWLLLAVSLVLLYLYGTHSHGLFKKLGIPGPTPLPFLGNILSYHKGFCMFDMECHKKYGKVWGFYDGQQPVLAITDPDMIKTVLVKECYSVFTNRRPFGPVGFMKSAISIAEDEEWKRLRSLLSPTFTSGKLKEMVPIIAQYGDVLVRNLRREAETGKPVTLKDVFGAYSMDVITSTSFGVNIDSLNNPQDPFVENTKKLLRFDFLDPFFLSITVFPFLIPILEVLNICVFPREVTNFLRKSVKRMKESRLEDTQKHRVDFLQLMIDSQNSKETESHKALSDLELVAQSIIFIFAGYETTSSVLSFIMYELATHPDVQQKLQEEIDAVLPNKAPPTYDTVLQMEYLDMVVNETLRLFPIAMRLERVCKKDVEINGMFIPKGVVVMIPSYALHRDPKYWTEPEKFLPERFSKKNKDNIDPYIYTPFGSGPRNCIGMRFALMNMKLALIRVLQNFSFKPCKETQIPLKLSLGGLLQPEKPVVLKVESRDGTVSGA

[12] = test system: α4β2-nAChR from rat cerebral cortical membranes; details: ref [39], [40]; cited from earlier work
[13] = chronic and neuropathic pain; ref [45], [46]; cited from earlier work

CN[C@H]1CC[C@@H](c2ccc(Cl)c(Cl)c2)c2ccccc21 [sertraline, reference compound]
Immobility in the forced swim test ([1]; positive control, 10 mg/kg (10 or 20 mg/kg in method), ip or orally): expected decrease in immobility

Cc1cc(OC[C@@H]2CCN2)on1 [Compound 43, 5-[(2(S)-Azetidinyl)methoxy]-3-methylisoxazole]
Agonist activity at α4β2-nAChRs [2]: full agonist activity
Agonist activity at α3β4*-nAChRs [3]: full agonist activity
Activity at the α1β1γδ-nAChR [4]: little activity; also recorded: inactive
Immobility in the forced swim test ([1]; 1 mg/kg ip, 30 min before test, 6 min trial, vs vehicle): reduced immobility
Immobility in the forced swim test ([1]; 1 mg/kg orally, 30 min before test, 6 min trial): inactive
Immobility in the forced swim test ([1]; 5 mg/kg ip, 30 min before test, 6 min trial, vs vehicle): reduced immobility
Inhibition in the preliminary binding screen [5]: ≤ 50%
CYP1A2 activity, % of the control [6]: ≥ 70%
CYP2B6 activity, % of the control [7]: ≥ 70%
CYP2C9 activity, % of the control [8]: ≥ 70%
CYP2C19 activity, % of the control [9]: ≥ 70%
CYP2D6 activity, % of the control [10]: ≥ 70%
CYP3A4 activity, % of the control [11]: ≥ 70%

Cc1cc([C@H]2C[C@@H]3CC[C@H]2N3)on1 [Compound 7, epiboxidine]
Fold less potent than compound 4 in the displacement of [3H]nicotine [12]: approximately 10 fold
Fold more potent than compound 6 in the displacement of [3H]nicotine [12]: 17 fold

Clc1ccc(OC[C@H]2CCN2)cn1 [Compound 10]
Potency relative to morphine [13]: 50 times

FCc1cc(OC[C@@H]2CCN2)on1 [Compound 39, 5-[(2(S)-Azetidinyl)methoxy]-3-(fluoromethyl)isoxazole Trifluoroacetate]
Activity at the α1β1γδ-nAChR [4]: little activity; also recorded: inactive
